ChEMBL document CHEMBL4418308, “cGAS ANTAGONIST COMPOUNDS” (2017)

What was measured:
[1] = biological target: T1, Cyclic GMP-AMP synthase (Homo sapiens, UniProt Q8N884); test: Inhibition of CGAS in human THP1 cells transfected with interferon stimulatory DNA and measured after 16 hrs by Gaussia luciferase reporter gene assay; type: cell-based
[2] = biological target: T1, Cyclic GMP-AMP synthase; test: Inhibition of CGAS in human THP1 cells transfected with mock Sendai virus and measured after 16 hrs by Gaussia luciferase reporter gene assay; type: cell-based
[3] = biological target: T1, Cyclic GMP-AMP synthase; test: Inhibition of recombinant His6-SUMO tagged human CGAS expressed in Escherichia coli BL21/pLys cells incubated for 20 mins by Kinase Glo chemiluminescence assay

T1 sequence (Q8N884 whole entry): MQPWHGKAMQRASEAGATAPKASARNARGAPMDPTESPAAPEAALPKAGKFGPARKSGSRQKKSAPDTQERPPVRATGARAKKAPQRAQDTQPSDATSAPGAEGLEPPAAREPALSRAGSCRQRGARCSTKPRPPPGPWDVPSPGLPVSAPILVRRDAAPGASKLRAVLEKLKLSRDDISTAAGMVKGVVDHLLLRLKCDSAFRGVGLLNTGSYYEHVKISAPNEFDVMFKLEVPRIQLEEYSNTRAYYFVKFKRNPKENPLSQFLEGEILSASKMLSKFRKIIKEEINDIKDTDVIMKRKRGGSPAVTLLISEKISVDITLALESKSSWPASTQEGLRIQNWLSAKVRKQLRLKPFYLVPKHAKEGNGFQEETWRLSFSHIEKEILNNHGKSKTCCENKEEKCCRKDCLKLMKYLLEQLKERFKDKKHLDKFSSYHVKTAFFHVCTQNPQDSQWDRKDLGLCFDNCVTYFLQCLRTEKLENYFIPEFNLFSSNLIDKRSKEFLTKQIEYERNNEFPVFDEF

SMILES | IC50 [1] | IC50 [2] | IC50 [3]
CN1C(=O)S/C(=C\c2cc(OCc3cn(-c4ccncc4)nn3)c(O)cc2Br)C1=O | 2500 to 10000 nM | ≥ 10000 nM | ≥ 10000 nM
CN1C(=O)S/C(=C\c2cc(OCc3cnc(NCc4ccccn4)nc3)c(O)cc2Br)C1=O | 2500 to 10000 nM | ≥ 10000 nM | ≤ 500 nM
CN1C(=O)S/C(=C\c2cc(OCc3cnc(NCc4ccncc4)nc3)c(O)cc2Br)C1=O | 2500 to 10000 nM | ≥ 10000 nM | ≤ 500 nM
CN1C(=O)S/C(=C\c2cc(OCc3ncc(N)cn3)c(O)cc2Br)C1=O | 2500 to 10000 nM | ≥ 10000 nM | ≥ 10000 nM
CN1C(=O)S/C(=C\c2cc(OCc3cnc(Cl)nc3)c(O)c(F)c2Br)C1=O | 2500 to 10000 nM |  | ≥ 10000 nM
CN1C(=O)S/C(=C\c2cc(OCc3cnc(NCc4cccnc4)nc3)c(O)c(F)c2Br)C1=O | 2500 to 10000 nM |  | 500 to 10000 nM
CN1C(=O)S/C(=C\c2cc(Oc3ccc(N)nc3)c(O)cc2Br)C1=O | 2500 to 10000 nM | ≥ 10000 nM | ≥ 10000 nM
CCOc1cc(/C=C2\SC(=O)N(C)C2=O)c(Br)cc1O | ≤ 2500 nM |  | ≤ 500 nM
CN1C(=O)S/C(=C\c2cc(OCc3cnc(N)nc3)c(Oc3cnc(N)s3)cc2Br)C1=O | 2500 to 10000 nM | ≥ 10000 nM | 500 to 10000 nM
COc1cc(/C=C2\SC(=O)N(C)C2=O)c(Br)cc1NS(=O)(=O)c1ccccn1 | 2500 to 10000 nM |  | ≥ 10000 nM
CN1C(=O)S/C(=C\c2cc(OCCc3cnc(N)nc3)c(O)c(F)c2Br)C1=O | ≤ 2500 nM | ≥ 10000 nM | ≤ 500 nM
C#CCOc1cc(/C=C2\SC(=O)N(C)C2=O)c(Br)cc1O | 2500 to 10000 nM |  | 500 to 10000 nM
COc1cc(/C=C2\Sc3ncccc3C2=O)c(Br)cc1O | 2500 to 10000 nM |  | ≤ 500 nM
Nc1ncncc1COc1cc(/C=C2\Sc3ncccc3C2=O)c(Br)cc1O | 2500 to 10000 nM | ≥ 10000 nM | ≤ 500 nM
COCCNc1ncc(COc2cc(/C=C3\SC(=O)N(C)C3=O)c(Br)c(F)c2O)cn1 | 2500 to 10000 nM | ≥ 10000 nM | ≤ 500 nM
COc1cc(/C=C2\Sc3ncccc3C2=O)c(Br)c(F)c1O | 2500 to 10000 nM | ≥ 10000 nM | ≤ 500 nM
CN1C(=O)S/C(=C\c2cc(OCc3cnc(N)nc3C3CC3)c(O)cc2Br)C1=O | 2500 to 10000 nM | ≥ 10000 nM | ≤ 500 nM
CN1C(=O)S/C(=C\c2cc3c(-c4cnc(N)nc4)c[nH]c3c(F)c2Br)C1=O | 2500 to 10000 nM | ≥ 10000 nM | ≤ 500 nM
CN1C(=O)S/C(=C\c2cc(OCc3cnc([S+](C)[O-])nc3)c(O)cc2Br)C1=O (stereo not drawn) | 2500 to 10000 nM | ≥ 10000 nM | ≤ 500 nM

SMILES | IC50 [1] | IC50 [2] | IC50 [3]
CN1C(=O)S/C(=C\c2cc(OCc3ccncc3)c(O)cc2Br)C1=O | ≤ 2500 nM |  | 500 to 10000 nM
CN1C(=O)S/C(=C\c2cc(OCc3cnc(N4CCNCC4)nc3)c(O)cc2Br)C1=O | 2500 to 10000 nM | ≥ 10000 nM | ≤ 500 nM
CN1C(=O)S/C(=C\c2cc(O)c(O)cc2Br)C1=O | 2500 to 10000 nM |  | ≥ 10000 nM
CN1C(=O)S/C(=C\c2cc(OCc3cnc[nH]3)c(O)cc2Br)C1=O | 2500 to 10000 nM | ≥ 10000 nM | ≥ 10000 nM
COc1cc(/C=C2\SC(=O)N(C)C2=O)c(Br)cc1NS(=O)(=O)c1csc(N)n1 | ≤ 2500 nM |  | 500 to 10000 nM
CC(Oc1cc(/C=C2\SC(=O)N(C)C2=O)c(Br)c(F)c1O)c1cncnc1N (stereo not drawn) | ≥ 10000 nM |  | 500 to 10000 nM
CN1C(=O)S/C(=C\c2cc(OCc3cccc4[nH]ccc34)c(O)cc2Br)C1=O | 2500 to 10000 nM |  | 500 to 10000 nM
CNc1ncc(COc2cc(/C=C3\Sc4ncccc4C3=O)c(Br)cc2O)cn1 | 2500 to 10000 nM | ≥ 10000 nM | ≤ 500 nM
CN1C(=O)S/C(=C\c2cc(OCc3cnc(Cl)nc3)c(O)cc2Br)C1=O | 2500 to 10000 nM | ≥ 10000 nM | ≤ 500 nM
CN1C(=O)S/C(=C\c2cc(OC(F)(F)F)c(O)cc2Br)C1=O | ≤ 2500 nM | 2500 to 10000 nM | ≥ 10000 nM
COCCNc1ncc(COc2cc(/C=C3\Sc4ncccc4C3=O)c(Br)cc2O)cn1 | 2500 to 10000 nM | ≥ 10000 nM | ≤ 500 nM
Nc1ncc(COc2cc(/C=C3\Sc4ncccc4C3=O)c(Br)c(F)c2O)cn1 | ≤ 2500 nM | ≥ 10000 nM | ≤ 500 nM
COc1cc(/C=C2\SC(=S)N(C)C2=O)c(Br)cc1O | 2500 to 10000 nM |  | ≤ 500 nM
CN1C(=O)S/C(=C\c2cc(OCC3CCCCC3)c(O)cc2Br)C1=O | 2500 to 10000 nM | 2500 to 10000 nM | ≥ 10000 nM
CC(C)C(=O)N1CCC(COc2cc(/C=C3\SC(=O)N(C)C3=O)c(Br)cc2O)CC1 | 2500 to 10000 nM | ≥ 10000 nM | ≥ 10000 nM
CN1C(=O)S/C(=C\c2cc(OCc3cccnc3)c(O)c(F)c2Br)C1=O | 2500 to 10000 nM |  | ≤ 500 nM
CN1C(=O)S/C(=C\c2cc(OCc3cccnc3)c(O)cc2Br)C1=O | 2500 to 10000 nM |  | ≤ 500 nM
CN1C(=O)S/C(=C\c2cc(OCc3cncnc3)c(O)c(F)c2Br)C1=O | 2500 to 10000 nM |  | ≤ 500 nM
COc1cc(/C=C2\SC(=O)N(C)C2=O)c(Cl)cc1O | ≤ 2500 nM |  | ≤ 500 nM

The next lines start with the values.

IC50 [1] | IC50 [2] | IC50 [3] | SMILES
≤ 2500 nM | ≥ 10000 nM | ≤ 500 nM | Cc1nc(N)ncc1COc1cc(/C=C2\SC(=O)N(C)C2=O)c(Br)cc1O
≤ 2500 nM | ≥ 10000 nM | ≤ 500 nM | [2H]C([2H])(Oc1cc(/C=C2\SC(=O)N(C)C2=O)c(Br)cc1O)c1cnc(N)nc1
2500 to 10000 nM | ≥ 10000 nM | ≤ 500 nM | CC1C(=O)S/C(=C\c2cc(OC(C)c3cnc(N)nc3C(F)(F)F)c(O)c(F)c2Br)C1=O (stereo not drawn)
2500 to 10000 nM | 2500 to 10000 nM | ≤ 500 nM | CC1C(=O)S/C(=C\c2cc(OC(C)c3cnc(Cl)nc3)c(O)c(F)c2Br)C1=O (stereo not drawn)
≤ 2500 nM | ≥ 10000 nM | ≤ 500 nM | CN1C(=O)S/C(=C\c2cc(OCc3cnc(NCCO)nc3)c(O)c(F)c2Br)C1=O
2500 to 10000 nM |  | ≤ 500 nM | O=C1/C(=C/c2cc(OCc3cccnc3)c(O)cc2Br)Sc2ncccc21
≤ 2500 nM | ≥ 10000 nM | ≤ 500 nM | Nc1ncc(COc2cc(/C=C3\Sc4ncccc4C3=O)c(Br)cc2O)cn1
2500 to 10000 nM | ≥ 10000 nM | ≤ 500 nM | O=C1/C(=C/c2cc(OCc3cnc(NCc4cccnc4)nc3)c(O)c(F)c2Br)Sc2ncccc21
≥ 10000 nM |  | ≤ 500 nM | CN1C(=O)S/C(=C\c2cc(OCc3cncnc3N)c(O)c(F)c2Br)C1=O
≤ 2500 nM | ≥ 10000 nM | ≤ 500 nM | CN1C(=O)S/C(=C\c2cc(O/C=C/c3cnc(N)nc3)c(O)c(F)c2Br)C1=O
≤ 2500 nM | ≥ 10000 nM | ≤ 500 nM | CN1C(=O)S/C(=C\c2cc(OCc3cnc(N)nc3)c(O)cc2Br)C1=O
2500 to 10000 nM | ≥ 10000 nM | ≤ 500 nM | O=C1/C(=C/c2cc(CC(F)(F)F)c(O)cc2Br)Sc2ncccc21
≤ 2500 nM | ≥ 10000 nM | ≤ 500 nM | CN1C(=O)S/C(=C\c2cc(OCc3cnc(NN)nc3)c(O)cc2Br)C1=O
≥ 10000 nM |  | ≤ 500 nM | CN1C(=O)S/C(=C\c2cc(OCc3cnc([S+](C)[O-])nc3N)c(O)c(F)c2Br)C1=O (stereo not drawn)
≤ 2500 nM | ≥ 10000 nM | ≤ 500 nM | CN1C(=O)S/C(=C\c2cc(OCc3cnc(N)nc3)c(O)c(F)c2Br)C1=O
2500 to 10000 nM |  | ≤ 500 nM | Nc1ncc(COc2cc(/C=C3\Sc4ncccc4C3=O)c(Br)cc2O)c(C2CC2)n1
≤ 2500 nM | ≥ 10000 nM | ≤ 500 nM | CN1C(=O)S/C(=C\c2cc(OCc3cncnc3)c(O)cc2Br)C1=O
2500 to 10000 nM |  | 500 to 10000 nM | CCN1C(=O)S/C(=C\c2cc(OC)c(O)cc2Br)C1=O

IC50 [1] | IC50 [2] | IC50 [3] | SMILES
≤ 2500 nM | ≥ 10000 nM | ≤ 500 nM | O=C1/C(=C/c2cc(OCc3cnc(NCCO)nc3)c(O)cc2Br)Sc2ncccc21
2500 to 10000 nM |  | ≤ 500 nM | CC(Oc1cc(/C=C2\Sc3ncccc3C2=O)c(Br)cc1O)c1cnc(NCCO)nc1 (stereo not drawn)
2500 to 10000 nM |  | ≤ 500 nM | Cc1ncc(COc2cc(/C=C3\SC(=O)C(C)C3=O)c(Br)c(F)c2O)c(N)n1 (stereo not drawn)
2500 to 10000 nM | ≥ 10000 nM | 500 to 10000 nM | O=C1/C(=C/c2cc(OC(F)(F)F)c(O)cc2Br)Sc2ncccc21
≤ 2500 nM | ≥ 10000 nM | ≤ 500 nM | O=C1/C(=C/c2cc(OCc3cnc(NCc4ccncc4)nc3)c(O)cc2Br)Sc2ncccc21
≤ 2500 nM | ≥ 10000 nM | ≤ 500 nM | COc1cc(/C=C2\SC(=O)N(C)C2=O)c(Br)cc1O
2500 to 10000 nM |  | ≤ 500 nM | COc1cc(/C=c2\sc3nccn3c2=O)c(Br)cc1O
≤ 2500 nM | ≥ 10000 nM | ≤ 500 nM | CN1C(=O)S/C(=C\c2cc(OCc3cncnc3N)c(O)cc2Br)C1=O
2500 to 10000 nM | ≥ 10000 nM | 500 to 10000 nM | C[S+]([O-])c1ncc(COc2cc(/C=C3\Sc4ncccc4C3=O)c(Br)c(F)c2O)cn1 (stereo not drawn)
≤ 2500 nM |  | ≤ 500 nM | CN1C(=O)S/C(=C\c2cc(OCCc3cnc(N)nc3)c(O)cc2Br)C1=O
≤ 2500 nM | ≥ 10000 nM | ≤ 500 nM | Cc1ncc(COc2cc(/C=C3\Sc4ncccc4C3=O)c(Br)c(F)c2O)cn1
2500 to 10000 nM |  | ≤ 500 nM | CCOc1cc(/C=C2\Sc3ncccc3C2=O)c(Br)cc1O
2500 to 10000 nM |  | ≤ 500 nM | Cc1ncc(COc2cc(/C=C3\Sc4ncccc4C3=O)c(Br)cc2O)cn1
≥ 10000 nM |  | 500 to 10000 nM | CC(Oc1cc(/C=c2\sc3nccn3c2=O)c(Br)c(F)c1O)c1cnc(N)nc1 (stereo not drawn)
≤ 2500 nM |  | ≤ 500 nM | Cc1nc(N)ncc1COc1cc(/C=C2\Sc3ncccc3C2=O)c(Br)cc1O
2500 to 10000 nM |  | ≤ 500 nM | O=C1/C(=C/c2cc(OCc3cnc(Cl)nc3)c(O)cc2Br)Sc2ncccc21
≤ 2500 nM |  | 500 to 10000 nM | COc1cc(/C=C2\Sc3ccccc3C2=O)c(Br)cc1O
